Results reported in US20200405696A1, “INHIBITORS OF INDOLEAMINE 2,3-DIOXYGENASE AND/OR TRYPTOPHAN 2,3-DIOXYGENASE” (IDORSIA PHARMACEUTICALS LTD, priority 2018, published 2020).

Assays:
[1] = molecular target: T1, Recombinant full-length human IDO1 (Homo sapiens, UniProt P14902); test: IDO1 enzymatic assay (NFK quantified by LCMS); format: biochemical; conditions: 2 nM enzyme, 5 μM L-tryptophan, pH6.5, 30 minutes pre-incubation at RT; mean values when measured multiple times; read-out: hIDO activity (IC50 in nM)
T1 construct: Recombinant full-length human IDO1 with a N-terminal hexahistidine tag; hexahistidine (His6) (N); made in house; host or cells: E. coli
Method in brief: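 IC50 comes from four-parameter logistic fits of duplicate data, with NFK quantified by LCMS and normalized to L-Trp-(indole-d5). Compound (0.5 nM–10 μM) was preincubated 30 min at RT with 2 nM E. coli-expressed IDO1 before a 30 min reaction with 5 μM tryptophan in pH 6.5 buffer containing ascorbate and methylene blue.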

[2] = molecular target: T2, Recombinant human TDO comprising amino acids 19-407 (Homo sapiens, UniProt P48775); test: TDO2 enzymatic assay (NFK quantified by LCMS); format: biochemical; conditions: 15 nM enzyme, 200 μM L-tryptophan, pH7, 30 minutes pre-incubation at RT; mean values when measured multiple times; read-out: hTDO activity (IC50 in nM)
T2 construct: Recombinant human TDO comprising amino acids 19-407 with a N-terminal hexahistidine tag; hexahistidine (His6) (N); made in house; host or cells: E. coli
Method in brief: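 NFK formed over 30 min at RT from 200 μM L-tryptophan was measured by LCMS, normalized to d5-tryptophan, after compound (0.5 nM–10 μM, duplicates, 0.6% DMSO) was preincubated 30 min with 15 nM recombinant His-tagged TDO 19-407 in phosphate buffer pH 7. IC50 from four-parameter logistic fit; repeats averaged.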

T2 sequence (P48775 19-406 limits assumed): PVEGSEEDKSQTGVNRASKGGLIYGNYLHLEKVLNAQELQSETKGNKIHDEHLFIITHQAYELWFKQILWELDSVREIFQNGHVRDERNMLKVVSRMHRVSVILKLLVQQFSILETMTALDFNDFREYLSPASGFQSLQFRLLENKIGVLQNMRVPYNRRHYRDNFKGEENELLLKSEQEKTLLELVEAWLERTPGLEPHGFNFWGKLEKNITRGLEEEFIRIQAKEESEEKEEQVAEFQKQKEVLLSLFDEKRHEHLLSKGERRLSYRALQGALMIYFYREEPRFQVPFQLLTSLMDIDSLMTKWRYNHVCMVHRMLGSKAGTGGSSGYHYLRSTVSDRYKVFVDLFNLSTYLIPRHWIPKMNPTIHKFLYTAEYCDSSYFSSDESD
T1 sequence (P14902 whole entry): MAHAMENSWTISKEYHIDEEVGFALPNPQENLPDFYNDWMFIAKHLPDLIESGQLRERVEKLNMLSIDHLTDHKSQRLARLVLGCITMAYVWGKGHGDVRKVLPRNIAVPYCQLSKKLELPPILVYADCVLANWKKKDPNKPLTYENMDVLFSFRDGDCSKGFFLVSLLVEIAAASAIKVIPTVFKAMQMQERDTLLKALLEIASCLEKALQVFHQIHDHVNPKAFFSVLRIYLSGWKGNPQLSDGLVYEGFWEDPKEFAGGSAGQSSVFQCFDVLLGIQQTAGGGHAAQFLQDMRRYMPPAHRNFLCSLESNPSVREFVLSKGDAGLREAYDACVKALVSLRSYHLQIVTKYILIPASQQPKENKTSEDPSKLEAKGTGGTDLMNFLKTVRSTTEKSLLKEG

| SMILES | IC50 [1] [nM] | IC50 [2] [nM] |
| --- | --- | --- |
| CCCCNC(=O)Nc1ccc(-n2cc(C(O)c3c(CC)sc4cncn34)nn2)cc1 (racemic) [Example 122, rac-1-Butyl-3-(4-{4-[(2-ethyl-imidazo[5,1-b]thiazol-3-yl)-hydroxy-methyl]-[1,2,3]triazol-1-yl}-phenyl)-urea] | 25.6 | 2070 |
| CCc1sc2cncn2c1C(O)c1cn(-c2ccc(C(=O)NCc3ccco3)cc2)nn1 (racemic) [Example 123, rac-4-{4-[(2-Ethyl-imidazo[5,1-b]thiazol-3-yl)-hydroxy-methyl]-[1,2,3]triazol-1-yl}-N-furan-2-ylmethyl-benzamide] | 8.09 | 6770 |
| CCc1sc2cncn2c1C(O)c1cn(-c2ccc(C(=O)N(C)CC)cc2)nn1 (racemic) [Example 124, rac-N-Ethyl-4-{4-[(2-ethyl-imidazo[5,1-b]thiazol-3-yl)-hydroxy-methyl]-[1,2,3]triazol-1-yl}-N-methyl-benzamide] | 109 | > 10200 |
| CCc1sc2cncn2c1C(O)c1cn(-c2ccc(C(=O)NC3CC3)cc2)nn1 (racemic) [Example 125, rac-N-Cyclopropyl-4-{4-[(2-ethyl-imidazo[5,1-b]thiazol-3-yl)-hydroxy-methyl]-[1,2,3]triazol-1-yl}-benzamide] | 15 | 8710 |
| CCc1sc2cncn2c1C(O)c1cn(-c2ccc(C(=O)NCCCOC)cc2)nn1 (racemic) [Example 126, rac-4-{4-[(2-Ethyl-imidazo[5,1-b]thiazol-3-yl)-hydroxy-methyl]-[1,2,3]triazol-1-yl}-N-(3-methoxy-propyl)-benzamide] | 20.1 | > 10200 |
| CCc1sc2cncn2c1C(O)c1cn(-c2ccc(NC(=O)C(C)C)cc2)nn1 (racemic) [Example 127, rac-N-(4-{4-[(2-Ethyl-imidazo[5,1-b]thiazol-3-yl)-hydroxy-methyl]-[1,2,3]triazol-1-yl}-phenyl)-isobutyramide] | 8.21 | 7750 |
| CCNC(=O)c1ccc(-n2cc(C(O)c3c(CC)sc4cncn34)nn2)cc1 (racemic) [Example 128, rac-N-Ethyl-4-{4-[(2-ethyl-imidazo[5,1-b]thiazol-3-yl)-hydroxy-methyl]-[1,2,3]triazol-1-yl}-benzamide] | 16.5 | 9780 |
| C=CCNC(=O)c1ccc(-n2cc(C(O)c3c(CC)sc4cncn34)nn2)cc1 (racemic) [Example 129, rac-N-Allyl-4-{4-[(2-ethyl-imidazo[5,1-b]thiazol-3-yl)-hydroxy-methyl]-[1,2,3]triazol-1-yl}-benzamide] | 9.29 | 9780 |
| CCc1sc2cncn2c1C(O)c1cn(-c2ccc(C(=O)NCCC#N)cc2)nn1 (racemic) [Example 130, rac-N-(2-Cyano-ethyl)-4-{4-[(2-ethyl-imidazo[5,1-b]thiazol-3-yl)-hydroxy-methyl]-[1,2,3]triazol-1-yl}-benzamide] | 13.1 | > 10200 |
| CCc1sc2cncn2c1C(O)c1cn(-c2ccc(NC(N)=O)cc2)nn1 (racemic) [Example 131, rac-(4-{4-[(2-Ethyl-imidazo[5,1-b]thiazol-3-yl)-hydroxy-methyl]-[1,2,3]triazol-1-yl}-phenyl)-urea] | 22.3 | 2150 |
| COC(=O)Nc1ccc(-n2cc(C(O)c3c(C4CC4)sc4cncn34)cn2)cc1 (racemic) [Example 132, rac-(4-{4-[(2-Cyclopropyl-imidazo[5,1-b]thiazol-3-yl)-hydroxy-methyl]-pyrazol-1-yl}-phenyl)-carbamic Acid Methyl Ester] | 18.2 | 1770 |
| OC(c1cn(-c2ccccc2)nn1)c1c(C(F)(F)F)sc2cncn12 (racemic) [Example 133, rac-(1-Phenyl-1H-[1,2,3]triazol-4-yl)-(2-trifluoromethyl-imidazo[5,1-b]thiazol-3-yl)-methanol] | 24.2 | > 10200 |
| COc1ccc(-n2cc(C(O)c3c(C(F)(F)F)sc4cncn34)nn2)cc1 (racemic) [Example 134, rac-[1-(4-Methoxy-phenyl)-1H-[1,2,3]triazol-4-yl]-(2-trifluoromethyl-imidazo[5,1-b]thiazol-3-yl)-methanol] | 11.4 | > 10200 |
| COc1ccc(-n2cc(C(O)c3c(C4CC4)sc4cncn34)nn2)cc1C#N (racemic) [Example 135, rac-5-{4-[(2-Cyclopropyl-imidazo[5,1-b]thiazol-3-yl)-hydroxy-methyl]-[1,2,3]triazol-1-yl}-2-methoxy-benzonitrile] | 14 | > 10200 |
| OCCOc1ccc(-n2cc(C(O)c3c(C4CC4)sc4cncn34)nn2)cc1 (racemic) [Example 136, rac-2-(4-{4-[(2-Cyclopropyl-imidazo[5,1-b]thiazol-3-yl)-hydroxy-methyl]-[1,2,3]triazol-1-yl}-phenoxy)-ethanol] | 10.8 | > 10200 |
| OCCCOc1ccc(-n2cc(C(O)c3c(C4CC4)sc4cncn34)nn2)cc1 (racemic) [Example 137, rac-3-(4-{4-[(2-Cyclopropyl-imidazo[5,1-b]thiazol-3-yl)-hydroxy-methyl]-[1,2,3]triazol-1-yl}-phenoxy)-propan-1-ol] | 11.1 | > 10200 |
| OCCOCCOc1ccc(-n2cc(C(O)c3c(C4CC4)sc4cncn34)nn2)cc1 (racemic) [Example 138, rac-2-[2-(4-{4-[(2-Cyclopropyl-imidazo[5,1-b]thiazol-3-yl)-hydroxy-methyl]-[1,2,3]triazol-1-yl}-phenoxy)-ethoxy]-ethanol] | 16.5 | > 10200 |
| CC(C)(O)COc1ccc(-n2cc(C(O)c3c(C4CC4)sc4cncn34)nn2)cc1 (racemic) [Example 139, rac-1-(4-{4-[(2-Cyclopropyl-imidazo[5,1-b]thiazol-3-yl)-hydroxy-methyl]-[1,2,3]triazol-1-yl}-phenoxy)-2-methyl-propan-2-ol] | 14.6 | > 10200 |
| CC(C)(O)CCOc1ccc(-n2cc(C(O)c3c(C4CC4)sc4cncn34)nn2)cc1 (racemic) [Example 140, rac-4-(4-{4-[(2-Cyclopropyl-imidazo[5,1-b]thiazol-3-yl)-hydroxy-methyl]-[1,2,3]triazol-1-yl}-phenoxy)-2-methyl-butan-2-ol] | 8.46 | > 10200 |
| CC(C)(CO)COc1ccc(-n2cc(C(O)c3c(C4CC4)sc4cncn34)nn2)cc1 (racemic) [Example 141, rac-3-(4-{4-[(2-Cyclopropyl-imidazo[5,1-b]thiazol-3-yl)-hydroxy-methyl]-[1,2,3]triazol-1-yl}-phenoxy)-2,2-dimethyl-propan-1-ol] | 27.2 | > 10200 |
| OC(c1cn(-c2ccc(OCCC3(O)CC3)cc2)nn1)c1c(C2CC2)sc2cncn12 (racemic) [Example 142, rac-1-[2-(4-{4-[(2-Cyclopropyl-imidazo[5,1-b]thiazol-3-yl)-hydroxy-methyl]-[1,2,3]triazol-1-yl}-phenoxy)-ethyl]-cyclopropanol] | 13.3 | > 10200 |
| CC1(COc2ccc(-n3cc(C(O)c4c(C5CC5)sc5cncn45)nn3)cc2)COC1 (racemic) [Example 144, rac-(2-Cyclopropyl-imidazo[5,1-b]thiazol-3-yl)-{1-[4-(3-methyl-oxetan-3-ylmethoxy)-phenyl]-1H-[1,2,3]triazol-4-yl}-methanol] | 11.2 | > 10200 |
| OC(c1cn(-c2ccc(OCC3(F)COC3)cc2)nn1)c1c(C2CC2)sc2cncn12 (racemic) [Example 145, rac-(2-Cyclopropyl-imidazo[5,1-b]thiazol-3-yl)-{1-[4-(3-fluoro-oxetan-3-ylmethoxy)-phenyl]-1H-[1,2,3]triazol-4-yl}-methanol] | 7.77 | > 10200 |
| O=S1(=O)CCC(COc2ccc(-n3cc(C(O)c4c(C5CC5)sc5cncn45)nn3)cc2)CC1 (racemic) [Example 147, rac-(2-Cyclopropyl-imidazo[5,1-b]thiazol-3-yl)-{1-[4-(1,1-dioxo-hexahydro-1I6-thiopyran-4-ylmethoxy)-phenyl]-1H-[1,2,3]triazol-4-yl}-methanol] | 12.9 | > 10200 |
| Oc1ccc(-n2cc(C(O)c3c(C4CC4)sc4cncn34)nn2)cc1Cl (racemic) [Example 148, rac-2-Chloro-4-{4-[(2-cyclopropyl-imidazo[5,1-b]thiazol-3-yl)-hydroxy-methyl]-[1,2,3]triazol-1-yl}-phenol] | 4.31 | 5130 |
| Oc1c(F)cc(-n2cc(C(O)c3c(C4CC4)sc4cncn34)nn2)cc1F (racemic) [Example 149, rac-4-{4-[(2-Cyclopropyl-imidazo[5,1-b]thiazol-3-yl)-hydroxy-methyl]-[1,2,3]triazol-1-yl}-2,6-difluoro-phenol] | 3.8 | > 10200 |
| Oc1ccc(-n2cc(C(O)c3c(C4CC4)sc4cncn34)nn2)cc1F (racemic) [Example 150, rac-4-{4-[(2-Cyclopropyl-imidazo[5,1-b]thiazol-3-yl)-hydroxy-methyl]-[1,2,3]triazol-1-yl}-2-fluoro-phenol] | 4.83 | 9290 |
